Data on three compounds can be found in article PMC5237291, “Sigma-2 receptor agonist derivatives of 1-Cyclohexyl-4-[3-(5-methoxy-1,2,3,4-tetrahydronaphthalen-1-yl)propyl]piperazine (PB28) induce cell death via mitochondrial superoxide production and caspase activation in pancreatic cancer” (BMC Cancer, 2017).

One data set relates to Panc02 tumors. Description: In vivo tumor growth and survival, Panc02 tumors in C57BL/6 mice. To be noted: for Effect on tumor volume (in words): daily i.p. treatment, compared to vehicle or gemcitabine. On the procedure:
In this pre-clinical model, we utilized the Panc02 cell line, which is weakly immunogenic in C57BL/6 mice and aggressive with a subcutaneous inoculum of 1 × 10^5 cells being lethal within 6–8 weeks. In vivo studies with mice were performed to compare the effect of sigma-2 ligands with gemcitabine. Mice treated with vehicle alone (a mixture of 5% DMSO, 5% EtOH, and 10% Cremophor in H2O) served as the control cohort. Female C57BL/6 mice (10 weeks old, National Cancer Institute Laboratories) were injected in the right flank with 200 μL of a single-cell suspension of Panc02 cells in non-supplemented RPMI medium (1 × 10^6 cells per mouse). Treatment began when the mean tumor diameter was ~ 5 mm. […] Tumors were measured three times weekly in two dimensions with a digital caliper, and tumor volumes were calculated by the standard formula of Tumor Volume = Length x Width^2 × 0.5. All mice were euthanized when tumors reached a diameter of 15 mm or had ulcerated.

The next data set addresses sigma-2 receptor. To be noted: read-out: Affinity (Ki) σ2, cited from earlier work.
Data set [1] concerns BxPC3 cells. Description: MTT cell viability, BxPC3. Conditions: 24 h treatment, viability relative to vehicle. It counts as cell-based, human. On the procedure:
(§1) Determination of cell growth was performed using the MTT assay at 24 h. On day 1, pancreatic cancer cell lines were plated at a density of 2 × 10^4 cells/well in black clear-bottom 96-well plates for 24 h prior to treatment in a volume of 100 μL. On day 2, the cells were treated for 24 h with the various drugs concentration (1 μM-100 μM). Untreated cells served as a control. The various drug-solvents (EtOH, DMSO) were added in each control to evaluate a possible solvent cytotoxicity. After the established incubation time with drugs (24 h), MTT (0.5 mg/ml) was added to each well, and after 3–4 h incubation at 37 °C, the supernatant was removed. The formazan crystals were solubilized using 100 μl of DMSO/EtOH (1:1) and the absorbance values at 570 and 630 nm were determined on the multi-mode microplate reader (BioTek instruments, Winooski, VT). Different drug concentrations were assayed in triplicates.
(§2) Statistical analyses and data plotting were performed using GraphPad Prism software version 6.03 (San Diego, CA). Results were expressed as mean ± standard error of the mean of at least 3 biological replicates. EC50 values were calculated by curve fitting normalized viability versus drug concentration. Differences in viability, caspase-3 activity, and tumor volume were analyzed using two-way ANOVA to identify differences and confirmed with paired two tailed t-tests. Mann-Whitney test was used to compare the difference in CBC and biochemistry analyses. Kaplan-Meier survival analyses were used to assess differences between treatment groups and were compared using a log-rank test. A p-value < 0.05 was considered significant for all analyses.

For a further data set, the system named is caspase-3. Description: Caspase-Glo caspase-3 activity in Panc02 cells. It counts as cell-based, mouse. On the procedure: Caspase-3 activity was measured in Panc02 cell lines with a Caspase-Glo® Assay Systems (Promega) according to protocol in which the reagent contain luminogenic caspase substrates that cleaved by activated caspase. […] The contents were then mixed using plate shaker for 30 s, and incubated at room temperature for 90 min. Luminescence signal was measured using multi-mode microplate reader (BioTek). Assay was performed in triplicates, and caspase activity was plotted compared cells treated with DMSO as a control.

The test system of data set [2] is Panc02 cells. Description: MitoSOX Red mitochondrial superoxide by flow cytometry, Panc02. It counts as cell-based, mouse. To be noted: 2 h. On the procedure:
(§3) MitoSOX™ Red reagent is a novel fluorogenic dye specifically targeted to mitochondria in live cells. Oxidation of MitoSOX™ Red reagent by superoxide produces red fluorescence. Mitochondrial superoxide is generated as a byproduct of oxidative phosphorylation. […] MitoSOX™ Red reagent is readily oxidized by superoxide but not by other ROS- or reactive nitrogen species (RNS)–generating systems. Panc02, AsPC-1, KP-2 or BxPC3 cells were seeded into 12-well plates 24 h before treatment with sigma-2 ligands (50 μM) for 2 h at 37°C in presence or absence of α-tocopherol (100 μM) followed by staining with MitoSOX™ Red (5 μM). Two hours after red dye addition, the cells were washed twice with PBS and harvested with trypsin/EDTA buffer. The cells were washed twice with PBS before analysis with FACSCalibur (BD Bioscience, San Jose, CA). The oxidation product of MitoSOX™ Red by mitochondrial superoxide fluoresces with an emission maximus of 580 nm and was detected in the FL3 channel. Experiment was performed in triplicates.
In general terms: Flow cytometry measures light scatter and fluorescence of single cells or particles in a stream.

The next data set deals with Panc-1 cells. As to the kind of experiment: MTT cell viability, Panc-1. To be noted: Homo sapiens, 24 h treatment, viability relative to vehicle. It counts as cell-based. On the procedure: as §1, §2
Data set [3] in a line: Toxicity evaluation on mice not bearing tumor (CBC, serum chemistry, pathology). Conditions: for Off-target effects by necropsy and laboratory evaluations: naïve C57BL/6 mice, continuous daily treatment. It counts as in vivo, C57BL/6 mice. On the procedure: […] Mice from each treatment cohort were assessed for pathologic evaluation (Digestive Diseases Research Core Center at our institution). Blood was collected for complete blood count (CBC) and biochemical analysis (AST, ALT, BUN, total protein, glucose and Cr). Organs were examined grossly and histologically.

Another data set concerns KP02 cells. Description: MTT cell viability, KP02. It counts as cell-based, mouse. Conditions: 24 h treatment, viability relative to vehicle. On the procedure: as §1, §2
The next data set concerns KCKO cells. As to the kind of experiment: MTT cell viability, KCKO. To be noted: Mus musculus, 24 h treatment, viability relative to vehicle. It counts as cell-based. On the procedure:
as §1, §2

The next data set relates to AsPC-1 cells. As to the kind of experiment: MTT cell viability, AsPC-1. It counts as cell-based. To be noted: Homo sapiens, ASPC1, 24 h treatment, viability relative to vehicle. On the procedure:
as §1, §2

In data set [4] the test system is Panc02 cells. Description: MTT cell viability, Panc02. It counts as cell-based. Conditions: Mus musculus, 24 h treatment, viability relative to vehicle. On the procedure:
as §1, §2

Data set [5] relates to Panc02 cells. Description: ROS interference in cell viability (MTT with antioxidants). To be noted: 24 h. It counts as cell-based, mouse. On the procedure: The interference of ROS in cell viability was indirectly determined by MTT assay reported above at 24 h. On day 1, Panc02 cells were plated at a density of 2 × 10^4 cells/well in opaque 96-well, clear-bottom plates 24 h prior to treatment. On day 2, cells were treated with the drugs (50 μM) in the presence or absence of α-tocopherol (100 μM) or N-Acetyl-L-cysteine (100 μM). After incubation (24 h) with drugs, MTT assay was performed as above.

For a further data set, the system named is MIAPaCa-2 cells. Description: MTT cell viability, MIAPaCa-2. It counts as cell-based. To be noted: Homo sapiens, MIA PaCa-2, 24 h treatment, viability relative to vehicle. On the procedure:
as §1, §2

Another data set concerns AsPC1 cells. Description: MitoSOX Red mitochondrial superoxide by flow cytometry, AsPC1. It counts as cell-based, human. To be noted: 50 μM, 2 h. On the procedure:
as §3

Data set [6] concerns BxPC3 cells. As to the kind of experiment: MitoSOX Red mitochondrial superoxide by flow cytometry, BxPC3. To be noted: 50 μM, 2 h. It counts as cell-based, human. On the procedure:
as §3

Where two headings read alike, the source gives them in different places.

On to `Fc1cccc(F)c1[C@H]1CC[C@@H](N2CCN(C3CCCCC3)CC2)CC1` [PB282], for which, in the data set on Panc02 tumors (Panc02 s.c. in female C57BL/6), the “Effect on tumor volume (in words)” value is on record as “decreased tumor volume similar to gemcitabine alone”. Besides, the “Mean tumor volume following conclusion of treatment” value with Panc02 tumors (Panc02 s.c. in female C57BL/6, i.p. daily for two weeks (gemcitabine once weekly), vehicle mean = 924 mm^3) is reported as 483 mm^3. Moreover, in the data set on Panc02 tumors (Panc02 tumor-bearing C57BL/6 mice, treatment discontinued on day 15, DMSO (vehicle) 23 days), the Median survival turned out to be 29 days. Further, the Ki at sigma-2 receptor (ref Abate, et al., 2011 [28]) is 0.0141 µM. Moreover, the concentration for a half-maximal effect (EC50) in the data set on BxPC3 cells [1] (Homo sapiens, BXPC-3, 24 h) is more than 100 µM; in the data set on Panc-1 cells it was more than 100 µM; with KP02 cells (Mus musculus, 24 h), more than 100 µM; in the data set with KCKO cells, 90 µM; in the data set with AsPC-1 cells, more than 100 µM; in the data set with Panc02 cells [4], more than 100 µM. The concentration for a half-maximal effect (EC50) with MIAPaCa-2 cells amounted to 51 µM. Moreover, in the data set with caspase-3 (200 μM, 5 h), the “Increase of caspase-3 activity compared to cells treated with DMSO vehicle” value is recorded as 11.8 fold. In the data set on Panc02 cells [2] (Panc02 cells, 50 μM), the “Increase in MitoSOX fluorescence intensity compared to cells treated with DMSO” value is reported as 6.7 fold. Also, in data set [3], the “Off-target effects by necropsy and laboratory evaluations” value is listed as “no major off-target effects”. The compound also showed a Creatinine in data set [3] (not tumor-bearing C57BL/6 mice, n = 3, daily i.p., 5 days, control 0.34 ± 0.02) of 0.35 ± 0.03 mg/dL. Besides, the AST in [3] (not tumor-bearing C57BL/6 mice, n = 3, daily i.p., 5 days, control 5.6 ± 0.05) worked out at 5.5 ± 0.07 μ/L. In data set [3] (not tumor-bearing C57BL/6 mice, n = 3, daily i.p., 5 days, control 7.14 ± 0.1), the RBC is recorded as 9.91 ± 0.31 10^6/μL. Further, in [3] (not tumor-bearing C57BL/6 mice, n = 3, daily i.p., 5 days, control 10.58 ± 0.2), the WBC was 5.78 ± 0.78 10^3/μL. Also, the HGB in data set [3] (not tumor-bearing C57BL/6 mice, n = 3, daily i.p., 5 days, control 10.7 ± 0.7) is given as 15 ± 0.4 g/dL. Also, in data set [3] (not tumor-bearing C57BL/6 mice, n = 3, daily i.p., 5 days, control 15 ± 0.54), the MCH is recorded as 15.15 ± 0.05 pg. The same compound displayed a BUN in data set [3] (not tumor-bearing C57BL/6 mice, n = 3, daily i.p., 5 days, control 27 ± 0.4) of 24.5 ± 0.5 mg/dL. The compound further came in with an MCHC in data set [3] (not tumor-bearing C57BL/6 mice, n = 3, daily i.p., 5 days, control 29.2 ± 1.21) of 29.4 ± 0.3%. In [3] (not tumor-bearing C57BL/6 mice, n = 3, daily i.p., 5 days, control 36.6 ± 0.08), the HCT was 51.1 ± 1.9%. Also, the MCV in data set [3] (not tumor-bearing C57BL/6 mice, n = 3, daily i.p., 5 days, control 51.2 ± 0.32) is 51.55 ± 0.35 fL. In data set [3] (not tumor-bearing C57BL/6 mice, n = 3, daily i.p., 5 days, control 260 ± 21), this compound returned an ALT of 221 ± 63 μ/L. Besides, the Platelets in data set [3] (not tumor-bearing C57BL/6 mice, n = 3, daily i.p., 5 days, control 486 ± 67) was 649.5 ± 167.5 10^3/μL. Also, the “Cell death on co-treatment with NAC” value with Panc02 cells [5] (Panc02 cells, ligand 50 μM with NAC 100 μM) is “even higher levels of cell death”.
Consider `c1ccc2c(c1)c1ccccc1n2CCCN1CCN(C2CCCCC2)CC1` [F281, 1-Cyclohexyl-4-[3-(9H-carbazol-9-yl)propyl]piperazine], for which, in the data set on Panc02 tumors (Panc02 s.c. in female C57BL/6), the “Effect on tumor volume (in words)” value is given as “did not confer a significantly different tumor volume than vehicle alone”. Also, at sigma-2 receptor (ref Ferorelli et al., 2007 [27]), the Ki is 0.0126 µM. Further, the EC50 in the data set with BxPC3 cells [1] was 42 µM; with BxPC3 cells [1] (Homo sapiens, BXPC-3, 24 h) it was approximately 45 µM; in the data set on Panc-1 cells, more than 100 µM; in the data set with KP02 cells, 49 µM; in the data set on KP02 cells (Mus musculus, 24 h) it was approximately 45 µM; in the data set with KCKO cells, 62 µM. Moreover, the EC50 with AsPC-1 cells stood at 98 µM; with Panc02 cells [4], 37 µM; in the data set on MIAPaCa-2 cells, 29 µM. The “Caspase-3 activation (in words)” value in the data set on caspase-3 (200 μM, 5 h, compared to DMSO control) was “did not activate at all”. Besides, the “Mitochondrial superoxide generation in AsPC1” value in the data set with AsPC1 cells was “generated some mitochondrial superoxide”. Besides, the “Off-target effects by necropsy and laboratory evaluations” value in [3] is given as “no major off-target effects”. In the data set with BxPC3 cells [6], the “Mitochondrial superoxide generation in BxPC3” value is “generated some mitochondrial superoxide”.
As for `Cc1c(C)c2c(c(C)c1O)CC[C@@](C)(CCC[C@H](C)CCC[C@H](C)CCCC(C)C)O2` [α-tocopherol, reference compound], the “Effect on caspase activation caused by PB221 or PB282” value in the data set on caspase-3 (Z-DEVD-FMK 1 μM or α-tocopherol given before PB221, PB282 (200 μM, 5 h)) was “abrogates caspase-3 dependent cleavage”. Further, the “Effect on mitochondrial superoxide production following sigma-2 ligands treatment” value with Panc02 cells [2] (all pancreatic cancer cell lines tested (Panc02, AsPC-1, KP02, BxPC3), sigma-2 ligands 50 μM, with α-tocopherol) was “strongly decreased”. Also, the “Protection against sigma-2 ligand induced cell death (Panc02 viability)” value in the data set on Panc02 cells [5] (antioxidant 100 μM one hour prior to sigma-2 ligands 50 μM) is on record as “protected against sigma-2 receptor ligands induced cell death”.

For orientation: Ki means a measure of affinity in units of concentration, obtained from inhibition or displacement. As a reminder, the EC50 is the concentration needed to bring the measured effect to its halfway point. Read a high EC50 as a less potent agent.
